Laboratory results reported in US6436979B1 (priority 2000, dated 2002).
Where two headings read alike, the source gives them in different places.

Tested on: Phytophthora infestans
Type: in vivo
Details: tomato leaves infected next day with zoospore suspension, evaluated after 6 days, untreated control 89% infection
[1] = conc. in the spray liquor 0.06 ppm
[2] = conc. in the spray liquor 0.25 ppm

Row | Compound | Efficacy in % of the untreated control [1] [%] | Efficacy in % of the untreated control [2] [%]
1 | CON=C(C(=O)OC)c1ccccc1COc1ccccc1C [Compound II] | 10 | 
2 | COC(=O)N(OC)c1ccccc1COc1ccn(-c2ccc(C)cc2)n1 [Compound I.38] | 0 | 33
3 | COC(=O)N(OC)c1ccccc1COc1ccn(-c2ccc(Cl)cc2)n1 [Compound I.32] | 10 | 55
4 | CC(C)OC(=O)NC(C(=O)NC(C)c1nc2ccc(F)cc2s1)C(C)C (centres unmarked) [Compound IV/1] | 21 | 
5 | CNC(=O)C(=NOC)c1ccccc1COc1cc(C)ccc1C [Compound III] | 0 | 33
